The test system of assay [1] is D4M.3A melanoma. Briefly: D4M.3A tumor growth in RAG1-deficient hosts. In kind it is in vivo, mice. Particulars: hosts lack lymphocytes, FIG. 4D. An excerpt: Mice. Foxp3YFP-Cre (Ref. 1), Foxp3GFP-Cre-ERT2 (Ref 2), Rosa26YFP (Ref. 4), Ifng KO (Ref.5) and C57BL/6/J mice were purchased from Jackson laboratories. […] and James J. […] Animals were housed in specific pathogen-free facilities at the Massachusetts General Hospital (MGH) and all experimental studies were approved and performed in accordance with guidelines and regulations implemented by the MGH Institutional Animal Care and Use Committee (IACUC). For survival studies the age of mice at euthanasia mandated by a moribund state of health was recorded in Kaplan Meyer plots. […] Wherever possible, animals were randomized into treatment groups. Tumor volumes were measured every second to third day after start of treatments and calculated as V=(length×width^2)/2.

The test system of assay [2] is D4M.3A melanoma. Briefly: D4M.3A tumor growth in F^Cre/+×C1^+/+ or f/f mice treated with Mepazine or vehicle. In kind it is in vivo. Particulars: Mepazine from day 9, FIG. 13C. The procedure: FIGS. 13A-13K. (FIG. 13A), MHC II expression on tumor-associated macrophages in D4M.3A-implanted F^Cre/+×C1^++, f/+ or f/f mice. (FIG. 13B), D4M.3A tumor growth in mice treated with depleting αCD8 Ab from day 8 and treated with mepazine or not from day 9. (FIG. 13C), D4M.3A tumor growth in F^Cre/+×C1^+/+ or f/f mice treated with Mepazine or vehicle starting on day 9. (FIG. 13D), YFP^+ Treg were sorted from F^Cre×C1^+/+ mice and treated with 10 μM Mepazine of vehicle for 8 or 24 hours with or without concurrent αCD3/28 mAb TCR stimulation (8 h time-point only) and expression of Foxp3, markers of eTreg differentiation, cell viability, and frequency of eTreg were recorded. (FIG. 13E), RT-qPCR analysis of expression of Foxp3 and various Treg-associated genes in whole tumor tissue lysate following 3 days of Mepazine or vehicle treatment. (FIGS. 13F-13J), Composition of the tumor tissue immune infiltrate and frequencies of CD45^+ cells (FIG. 13G) and of various immune cell subsets (FIG. 13H) as well Ki67 expression by Tconv (FIG. 13I) and MHC II expression by macrophages (FIG. 13J) following 3 days of Mepazine or vehicle treatment. […]
Tumor growth studies and treatments. […] Tumor volumes were measured every second to third day after start of treatments and calculated as V=(length×width^2)/2. […]

The subject of another assay is tumor-infiltrating Treg. Put plainly: In situ effector cytokine expression and frequency of tumor-infiltrating Treg (flow cytometry). The format is in vivo, mice. Particulars: within 3 days of mepazine, FIG. 14K. The procedure:
Preparation of single cell suspensions, antibody staining and flow cytometry. Heparinized peripheral blood collected through sub-mandibular vein puncture was treated with ACK red blood cell lysis buffer. LNs and spleens were passed through 40 μm cell strainers, followed by red blood cell lysis (spleens only). Tumors were minced into small fragments and treated with 1.5 mg/ml collagenase IV and 50 U/ml DNAse I for 30 min. at 37° C. under agitation.
Intracellular and nuclear proteins were stained for 60 minutes at room temperature after permeabilization and fixation (Mouse regulatory T cell staining Kit; eBioscience) using antibodies against: CD152/CTLA-4-(UC10-4B9), TNF (MP6-XT22), IL-4 (11B11), IL-17A (TC11-18H10.1), IFNγ (XMG1.2), and Ki67 (16A8) (BD Biosciences), BIM (C34C5), CARD11/CARMA1 (1D12) (Cell Signaling), Foxp3 (FJK-16s, eBioscience), GFP (rabbit polyclonal, Invitrogen). Polyclonal goat α-rabbit Ig (H+L) secondary antibody (Life Technologies) was used to reveal primary α-CARMA1 staining.
(§1) Preceding antibody staining, Fc receptors were blocked with TruStain fcX (Biolegend) for 20 minutes at 4° C., followed by dead cells staining using the fixable viability violet dye […] (Biolegend) for 15 minutes at room temperature. Cells were analyzed on LSRII, LSRFortessa or LSRFortessa X-20 flow cytometers (BD Biosciences), and data were analyzed with FlowJo software version 9.9.5.
Analysis of in situ and ex vivo stimulated cytokine secretion. To detect in situ cytokine secretion, mice were slowly i.v. injected with 500 μg of fully dissolved Brefeldin A in 250 μl PBS 6 h before sacrifice and intracellular cytokine staining.
A general note: Flow cytometry measures light scatter and fluorescence of single cells or particles in a stream.

In the next assay the test system is Treg. Put plainly: In vitro treatment of sorted YFP+ Treg with Mepazine. The format is cell-based, mice. Particulars: 10 μM Mepazine. The procedure: (§2) FIGS. 13A-13K. (FIG. 13A), MHC II expression on tumor-associated macrophages in D4M.3A-implanted F^Cre/+×C1^++, f/+ or f/f mice. (FIG. 13B), D4M.3A tumor growth in mice treated with depleting αCD8 Ab from day 8 and treated with mepazine or not from day 9. (FIG. 13C), D4M.3A tumor growth in F^Cre/+×C1^+/+ or f/f mice treated with Mepazine or vehicle starting on day 9. (FIG. 13D), YFP^+ Treg were sorted from F^Cre×C1^+/+ mice and treated with 10 μM Mepazine of vehicle for 8 or 24 hours with or without concurrent αCD3/28 mAb TCR stimulation (8 h time-point only) and expression of Foxp3, markers of eTreg differentiation, cell viability, and frequency of eTreg were recorded. (FIG. 13E), RT-qPCR analysis of expression of Foxp3 and various Treg-associated genes in whole tumor tissue lysate following 3 days of Mepazine or vehicle treatment. (FIGS. 13F-13J), Composition of the tumor tissue immune infiltrate and frequencies of CD45^+ cells (FIG. 13G) and of various immune cell subsets (FIG. 13H) as well Ki67 expression by Tconv (FIG. 13I) and MHC II expression by macrophages (FIG. 13J) following 3 days of Mepazine or vehicle treatment. (FIG. 13K), Effector cytokine co-expression by tumor-infiltrating Treg following 12 days Mepazine and αPD-1 Ab treatment. *=p<0.05, **=p<0.01, and ***=p<0.001. *, #=any p<0.05 vs. C1^+/+ and C1^+/++ Mepazine, resp. in FIG. 13C.

A further assay deals with D4M.3A tumor cells. Briefly: MHC I and PD-L1 expression on tumor cells after mepazine treatment. In kind it is in vivo, mice. Particulars: within 3 days of mepazine; FIG. 4E.
For the next assay, the system named is whole tumor tissue. Put plainly: Gene expression in whole tumor tissue (RT-qPCR). In kind it is in vivo, mice. The procedure: Quantitative RT-PCR. For analysis of gene expression, RNA was isolated (AllPrep, DNA/RNA Mini kit; Qiagen) from CD4+ GFP+ Treg sorted to >99% purity from tdFNs and tumors, or from homogenized tumor tissue, and reverse transcribed using iScript cDNA Synthesis Kit (Bio-RAD). Quantitative RT-PCR was performed using iQ SYBR green supermix (Bio-RAD) and primers: […]
Results were expressed as 2-ΔCT relative to the house keeping gene GAPDH.

Assay [3] deals with tumor tissue immune infiltrate. Briefly: Composition of the tumor tissue immune infiltrate. The format is in vivo, mice. Particulars: 3 days of Mepazine or vehicle; FIGS. 13F-13J. The procedure: as §2
Preparation of single cell suspensions, antibody staining and flow cytometry. Heparinized peripheral blood collected through sub-mandibular vein puncture was treated with ACK red blood cell lysis buffer. LNs and spleens were passed through 40 μm cell strainers, followed by red blood cell lysis (spleens only). […]
as §1

Method for D4M.3A tumor cells: (FIG. 4A) Female Foxp3^GFP-CreERT2×CARMA1^+/+ and ×CARMA1^1111 mice were implanted with D4M.3A melanoma and starting on day 9 treated with tamoxifen until the end of the experiment as well as with three doses of 200 μg of the blocking α-PD-1 antibody 29F.1A12 or isotype control antibody, and tumor growth was recorded. […] (FIGS. 4C and 4D) D4M.3A tumor growth in C57BL/6 (FIG. 4C) or RAG1-deficient hosts (FIG. 4D) treated with MALT1 inhibitors mepazine or MI-2. (FIGS. 4E-4G) Mepazine effects within 3 days on MHC I and PD-L1 expression on tumor cells (FIG. 4E), expression of genes of adaptive immune resistance (Pdl1, Socs1), MHC I antigen presentation (Tap1), IFNγ-signaling (Stat1, Irf1), T cell recruitment (CXCL10), M1 macrophage activation (Nos2), and cytotoxicity (Gzmb) (FIG. 4F), as well as the frequency of CD4^+ and CD8^+ T cells (FIG. 4G). […] All graphs show means and either individual replicates or ±SEM.
Preparation of single cell suspensions, antibody staining and flow cytometry. […]
Preceding antibody staining, Fc receptors were blocked with TruStain fcX (Biolegend) for 20 minutes at 4° C., followed by dead cells staining using the fixable viability violet dye Zombie Red (Biolegend) for 15 minutes at room temperature. Cells were analyzed on LSRII, LSRFortessa or LSRFortessa X-20 flow cytometers (BD Biosciences), and data were analyzed with FlowJo software version 9.9.5.

For `COCCOc1nc(-c2ccc(Cl)c(Cl)c2)n(-c2ccc(NC(=O)CCl)cc2)n1` [MI-2], the “tumor growth in Rag1-deficient mice” value with D4M.3A melanoma [1] is “no effect on tumor growth”.

In the case of `CN1CCCC(CN2c3ccccc3Sc3ccccc32)C1` (stereo not shown) [mepazine], the “tumor growth in Rag1-deficient mice” value in the assay on D4M.3A melanoma [1] is listed as “no effect on tumor growth”. Further, in the assay with D4M.3A melanoma [2], the “addition to anti-tumor effect of CARMA1-deletion in Treg” value is recorded as “did not add to the anti-tumor effect of CARMA1-deletion in Treg”. In the assay with tumor-infiltrating Treg (in situ), the “IFNγ-expression by tumor-infiltrating Treg” value was “rapid induction” and the “TNF-expression by tumor-infiltrating Treg” value is “rapid induction”. Further, the “Treg frequency in tumor” value in the assay on tumor-infiltrating Treg was “did not reduce Treg frequency”. Moreover, in the assay on Treg (8 or 24 hours, FIG. 13D), the “Foxp3 expression of Treg in vitro” value was “only a minor reduction” and the “GITR expression of Treg in vitro” value is recorded as “only a minor reduction”. Also, in the assay with Treg (not shown), the “effector cytokine expression of Treg in vitro” value was “no effector cytokine expression”. In addition, in the assay with D4M.3A tumor cells, the “MHC I expression on tumor cells” value is on record as “up-regulation” and the “PD-L1-expression on tumor cells” value was “up-regulation”. Also, the “expression of Treg-associated genes in tumor tissue” value in the assay on whole tumor tissue (3 days of Mepazine or vehicle, FIG. 13E) is “not altered”. The “IFN-γ-regulated genes in whole tumor tissue” value with whole tumor tissue (3 days of mepazine) is given as “induction of a wide range of IFN-γ-regulated genes”. In addition, in assay [3], the “frequency of CTL in tumor tissue” value was “increased”, the “frequency of NK cells in tumor tissue” value is listed as “increased” and the “immune cell infiltration of tumor tissue” value is “generally enhanced”.

Values taken from patent US11571427B2, “Targeting the CBM signalosome complex induces regulatory T cells to inflame the tumor microenvironment” (THE GENERAL HOSPITAL CORPORATION, priority 2017, dated 2023).
